The compounds below were run against FLNA pentapeptide of SEQ ID NO: 1 (Bn-VAKGL) (Homo sapiens, UniProt P21333) (assay: FITC-NLX-based FLNA screening assay (inhibition of FITC-naloxone binding to Bn-VAKGL on streptavidin plates)). Settings: read-out: Percent Binding Inhibition, FLNA-binding compound 0.01 μM; 10 nM FITC-NLX.

| SMILES | inhibition at 0.01 µM [%] |
| --- | --- |
| O=S(=O)(c1ccc(Br)cc1F)N1CCC2(CC1)OCCN2S(=O)(=O)c1ccc(Br)cc1F [Compound C0078] | 46.6 |
| COc1ccc(C(=O)CC2c3c(cc4c(c3OC)OCO4)CC[N+]2(C)C)c(O)c1 (stereo not drawn) [Compound B0033] | 42.1 |
| O=S(=O)(c1csc2ccccc12)N1CCC2(CC1)OCCN2S(=O)(=O)c1csc2ccccc12 [Compound C0150M] | 47.3 |
| COc1ccc(CCC(=O)CC2c3c(cc4c(c3OC)OCO4)CC[N+]2(C)C)cc1 (stereo not drawn) [Compound B0016] | 27.1 |
| COc1ccccc1C(=O)CC1c2c(cc3c(c2OC)OCO3)CC[N+]1(C)C (stereo not drawn) [Compound B0025] | 41.7 |
| O=S(=O)(c1ccc(Br)c(C(F)(F)F)c1)N1CCC2(CC1)OCCN2S(=O)(=O)c1ccc(Br)c(C(F)(F)F)c1 [Compound C0077] | 45.7 |
| CC1CN(CC(O)COc2ccccc2)CC(C)O1 (stereo not drawn) [Compound A0025] | 39 |

Same assay, conditions: read-out: Percent Binding Inhibition, FLNA-binding compound 0.1 μM; 10 nM FITC-NLX

| SMILES | inhibition at 0.1 µM [%] |
| --- | --- |
| O=S(=O)(c1ccc(Br)cc1F)N1CCC2(CC1)OCCN2S(=O)(=O)c1ccc(Br)cc1F [Compound C0078] | 48 |
| COc1ccc(C(=O)CC2c3c(cc4c(c3OC)OCO4)CC[N+]2(C)C)c(O)c1 (stereo not drawn) [Compound B0033] | 46.8 |
| O=S(=O)(c1csc2ccccc12)N1CCC2(CC1)OCCN2S(=O)(=O)c1csc2ccccc12 [Compound C0150M] | 51.8 |
| COc1ccc(CCC(=O)CC2c3c(cc4c(c3OC)OCO4)CC[N+]2(C)C)cc1 (stereo not drawn) [Compound B0016] | 33.7 |
| COc1ccccc1C(=O)CC1c2c(cc3c(c2OC)OCO3)CC[N+]1(C)C (stereo not drawn) [Compound B0025] | 49.4 |
| O=S(=O)(c1ccc(Br)c(C(F)(F)F)c1)N1CCC2(CC1)OCCN2S(=O)(=O)c1ccc(Br)c(C(F)(F)F)c1 [Compound C0077] | 47.7 |
| CC1CN(CC(O)COc2ccccc2)CC(C)O1 (stereo not drawn) [Compound A0025] | 49.8 |

Same assay, conditions: read-out: Percent Binding Inhibition, FLNA-binding compound 1 μM; 10 nM FITC-NLX

| SMILES | inhibition at 1 µM [%] |
| --- | --- |
| O=S(=O)(c1ccc(Br)cc1F)N1CCC2(CC1)OCCN2S(=O)(=O)c1ccc(Br)cc1F [Compound C0078] | 50.5 |
| COc1ccc(C(=O)CC2c3c(cc4c(c3OC)OCO4)CC[N+]2(C)C)c(O)c1 (stereo not drawn) [Compound B0033] | 49.4 |
| O=S(=O)(c1csc2ccccc12)N1CCC2(CC1)OCCN2S(=O)(=O)c1csc2ccccc12 [Compound C0150M] | 61.4 |
| COc1ccc(CCC(=O)CC2c3c(cc4c(c3OC)OCO4)CC[N+]2(C)C)cc1 (stereo not drawn) [Compound B0016] | 41.9 |
| COc1ccccc1C(=O)CC1c2c(cc3c(c2OC)OCO3)CC[N+]1(C)C (stereo not drawn) [Compound B0025] | 56.6 |
| O=S(=O)(c1ccc(Br)c(C(F)(F)F)c1)N1CCC2(CC1)OCCN2S(=O)(=O)c1ccc(Br)c(C(F)(F)F)c1 [Compound C0077] | 51 |
| CC1CN(CC(O)COc2ccccc2)CC(C)O1 (stereo not drawn) [Compound A0025] | 53.2 |

Each compound was assayed on mu opiate receptor (MOR) (assay: MOR agonist activity using [35S]GTPγS binding assay in striatal membranes). Settings: 0.1 μM compound.
Assay type: biochemical
How it was run: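 Striatal membranes (200 μg) were preincubated 5 min at 30 °C in HEPES pH 7.5 with 100 mM NaCl, 1 mM MgCl2 and 0.5 nM [35S]GTPγS, then 5 min more with 0.1–10 μM compound. Gαo was immunoprecipitated and bound radioactivity counted by scintillation.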

| SMILES | MOR agonist activity ([35S]GTPγS binding), FLNA-Binding Compound as Agonist 0.1 μM [%] |
| --- | --- |
| CC1CN(CC(O)COc2ccccc2)CC(C)O1 (stereo not drawn) [Compound A0025] | 58.6 |

Same assay, conditions: 0.1 μM compound relative to DAMGO

| SMILES | % DAMGO (0.1 μM) [%] |
| --- | --- |
| CC1CN(CC(O)COc2ccccc2)CC(C)O1 (stereo not drawn) [Compound A0025] | 33.2 |

Same assay, conditions: 1 μM compound

| SMILES | MOR agonist activity ([35S]GTPγS binding), FLNA-Binding Compound as Agonist 1 μM [%] |
| --- | --- |
| CC1CN(CC(O)COc2ccccc2)CC(C)O1 (stereo not drawn) [Compound A0025] | 138.7 |

Same assay, conditions: 1 μM compound + 1 μM β-funaltrexamine

| SMILES | MOR agonist activity ([35S]GTPγS binding), FLNA-Binding Compound as Agonist 1 μM + BFNA [%] |
| --- | --- |
| CC1CN(CC(O)COc2ccccc2)CC(C)O1 (stereo not drawn) [Compound A0025] | 52.2 |

Same assay, conditions: 1 μM compound + BFNA relative to DAMGO + BFNA

| SMILES | % DAMGO + BFNA [%] |
| --- | --- |
| CC1CN(CC(O)COc2ccccc2)CC(C)O1 (stereo not drawn) [Compound A0025] | 198.5 |

Same assay, conditions: 1 μM compound relative to DAMGO

| SMILES | % DAMGO (1 μM) [%] |
| --- | --- |
| CC1CN(CC(O)COc2ccccc2)CC(C)O1 (stereo not drawn) [Compound A0025] | 54.5 |

Same assay, conditions: Series B; 0.1 μM compound, relative to DAMGO

| SMILES | % DAMGO (0.1 μM) [%] |
| --- | --- |
| COc1ccc(C(=O)CC2c3c(cc4c(c3OC)OCO4)CC[N+]2(C)C)c(O)c1 (stereo not drawn) [Compound B0033] | 77.6 |
| COc1ccc(CCC(=O)CC2c3c(cc4c(c3OC)OCO4)CC[N+]2(C)C)cc1 (stereo not drawn) [Compound B0016] | 99.2 |
| COc1ccccc1C(=O)CC1c2c(cc3c(c2OC)OCO3)CC[N+]1(C)C (stereo not drawn) [Compound B0025] | 96.3 |

Same assay, conditions: Series B; 0.1 μM compound; [35S]GTPγS binding to Gαo, striatal membranes

| SMILES | MOR agonist activity, percent [35S]GTPγS binding at the stated compound concentration [%] |
| --- | --- |
| COc1ccc(C(=O)CC2c3c(cc4c(c3OC)OCO4)CC[N+]2(C)C)c(O)c1 (stereo not drawn) [Compound B0033] | 149.3 |
| COc1ccc(CCC(=O)CC2c3c(cc4c(c3OC)OCO4)CC[N+]2(C)C)cc1 (stereo not drawn) [Compound B0016] | 167.7 |
| COc1ccccc1C(=O)CC1c2c(cc3c(c2OC)OCO3)CC[N+]1(C)C (stereo not drawn) [Compound B0025] | 159.6 |

Same assay, conditions: Series B; 1 μM compound + 1 μM β-FNA

| SMILES | MOR agonist activity, percent [35S]GTPγS binding at the stated compound concentration [%] |
| --- | --- |
| COc1ccc(C(=O)CC2c3c(cc4c(c3OC)OCO4)CC[N+]2(C)C)c(O)c1 (stereo not drawn) [Compound B0033] | 41.9 |
| COc1ccc(CCC(=O)CC2c3c(cc4c(c3OC)OCO4)CC[N+]2(C)C)cc1 (stereo not drawn) [Compound B0016] | 72.2 |
| COc1ccccc1C(=O)CC1c2c(cc3c(c2OC)OCO3)CC[N+]1(C)C (stereo not drawn) [Compound B0025] | 137.7 |

Same assay, conditions: Series B; 1 μM compound + β-FNA, relative to DAMGO + BFNA

| SMILES | % DAMGO + BFNA [%] |
| --- | --- |
| COc1ccc(C(=O)CC2c3c(cc4c(c3OC)OCO4)CC[N+]2(C)C)c(O)c1 (stereo not drawn) [Compound B0033] | 95.4 |
| COc1ccc(CCC(=O)CC2c3c(cc4c(c3OC)OCO4)CC[N+]2(C)C)cc1 (stereo not drawn) [Compound B0016] | 109.4 |
| COc1ccccc1C(=O)CC1c2c(cc3c(c2OC)OCO3)CC[N+]1(C)C (stereo not drawn) [Compound B0025] | 211.8 |

Same assay, conditions: Series B; 1 μM compound, relative to DAMGO

| SMILES | % DAMGO (1 μM) [%] |
| --- | --- |
| COc1ccc(C(=O)CC2c3c(cc4c(c3OC)OCO4)CC[N+]2(C)C)c(O)c1 (stereo not drawn) [Compound B0033] | 69.2 |
| COc1ccc(CCC(=O)CC2c3c(cc4c(c3OC)OCO4)CC[N+]2(C)C)cc1 (stereo not drawn) [Compound B0016] | 79.9 |
| COc1ccccc1C(=O)CC1c2c(cc3c(c2OC)OCO3)CC[N+]1(C)C (stereo not drawn) [Compound B0025] | 86.8 |

Same assay, conditions: Series B; 1 μM compound; [35S]GTPγS binding to Gαo, striatal membranes

| SMILES | MOR agonist activity, percent [35S]GTPγS binding at the stated compound concentration [%] |
| --- | --- |
| COc1ccc(C(=O)CC2c3c(cc4c(c3OC)OCO4)CC[N+]2(C)C)c(O)c1 (stereo not drawn) [Compound B0033] | 188.9 |
| COc1ccc(CCC(=O)CC2c3c(cc4c(c3OC)OCO4)CC[N+]2(C)C)cc1 (stereo not drawn) [Compound B0016] | 213.6 |
| COc1ccccc1C(=O)CC1c2c(cc3c(c2OC)OCO3)CC[N+]1(C)C (stereo not drawn) [Compound B0025] | 234.6 |

Same assay, conditions: Series C-1; 0.1 μM compound, relative to DAMGO

| SMILES | % DAMGO (0.1 μM) [%] |
| --- | --- |
| O=S(=O)(c1ccc(Br)cc1F)N1CCC2(CC1)OCCN2S(=O)(=O)c1ccc(Br)cc1F [Compound C0078] | 82.4 |
| O=S(=O)(c1csc2ccccc12)N1CCC2(CC1)OCCN2S(=O)(=O)c1csc2ccccc12 [Compound C0150M] | 97.2 |
| O=S(=O)(c1ccc(Br)c(C(F)(F)F)c1)N1CCC2(CC1)OCCN2S(=O)(=O)c1ccc(Br)c(C(F)(F)F)c1 [Compound C0077] | 109.5 |

Same assay, conditions: Series C-1; 0.1 μM compound; [35S]GTPγS binding to Gαo, striatal membranes

| SMILES | Concentration of FLNA-Binding Compound as Agonist 0.1 μM [%] |
| --- | --- |
| O=S(=O)(c1ccc(Br)cc1F)N1CCC2(CC1)OCCN2S(=O)(=O)c1ccc(Br)cc1F [Compound C0078] | 138.1 |
| O=S(=O)(c1csc2ccccc12)N1CCC2(CC1)OCCN2S(=O)(=O)c1csc2ccccc12 [Compound C0150M] | 167.1 |
| O=S(=O)(c1ccc(Br)c(C(F)(F)F)c1)N1CCC2(CC1)OCCN2S(=O)(=O)c1ccc(Br)c(C(F)(F)F)c1 [Compound C0077] | 192.7 |

Same assay, conditions: Series C-1; 1 μM compound + 1 μM β-FNA

| SMILES | Concentration of FLNA-Binding Compound as Agonist 1 μM + BFNA [%] |
| --- | --- |
| O=S(=O)(c1ccc(Br)cc1F)N1CCC2(CC1)OCCN2S(=O)(=O)c1ccc(Br)cc1F [Compound C0078] | 170.7 |
| O=S(=O)(c1csc2ccccc12)N1CCC2(CC1)OCCN2S(=O)(=O)c1csc2ccccc12 [Compound C0150M] | 93.4 |
| O=S(=O)(c1ccc(Br)c(C(F)(F)F)c1)N1CCC2(CC1)OCCN2S(=O)(=O)c1ccc(Br)c(C(F)(F)F)c1 [Compound C0077] | 136.7 |

Same assay, conditions: Series C-1; 1 μM compound + β-FNA, relative to DAMGO + BFNA

| SMILES | % DAMGO + BFNA [%] |
| --- | --- |
| O=S(=O)(c1ccc(Br)cc1F)N1CCC2(CC1)OCCN2S(=O)(=O)c1ccc(Br)cc1F [Compound C0078] | 359.4 |
| O=S(=O)(c1csc2ccccc12)N1CCC2(CC1)OCCN2S(=O)(=O)c1csc2ccccc12 [Compound C0150M] | 173.2 |
| O=S(=O)(c1ccc(Br)c(C(F)(F)F)c1)N1CCC2(CC1)OCCN2S(=O)(=O)c1ccc(Br)c(C(F)(F)F)c1 [Compound C0077] | 621.4 |

Same assay, conditions: Series C-1; 1 μM compound, relative to DAMGO

| SMILES | % DAMGO (1 μM) [%] |
| --- | --- |
| O=S(=O)(c1ccc(Br)cc1F)N1CCC2(CC1)OCCN2S(=O)(=O)c1ccc(Br)cc1F [Compound C0078] | 106.4 |
| O=S(=O)(c1csc2ccccc12)N1CCC2(CC1)OCCN2S(=O)(=O)c1csc2ccccc12 [Compound C0150M] | 129.8 |
| O=S(=O)(c1ccc(Br)c(C(F)(F)F)c1)N1CCC2(CC1)OCCN2S(=O)(=O)c1ccc(Br)c(C(F)(F)F)c1 [Compound C0077] | 104.9 |

Same assay, conditions: Series C-1; 1 μM compound; [35S]GTPγS binding to Gαo, striatal membranes

| SMILES | Concentration of FLNA-Binding Compound as Agonist 1 μM [%] |
| --- | --- |
| O=S(=O)(c1ccc(Br)cc1F)N1CCC2(CC1)OCCN2S(=O)(=O)c1ccc(Br)cc1F [Compound C0078] | 236.6 |
| O=S(=O)(c1csc2ccccc12)N1CCC2(CC1)OCCN2S(=O)(=O)c1csc2ccccc12 [Compound C0150M] | 423.1 |
| O=S(=O)(c1ccc(Br)c(C(F)(F)F)c1)N1CCC2(CC1)OCCN2S(=O)(=O)c1ccc(Br)c(C(F)(F)F)c1 [Compound C0077] | 265.4 |

— patent publication US10363239B2, “Method for inhibiting growth of cancer cells” (Pain Therapeutics, Inc., priority 2013, dated 2019)
